Reference: ChEMBL document CHEMBL1146576, “Anti-inflammatory lanostane-type triterpene acids from Piptoporus betulinus” (2003)

What was measured:
Format in all cases: functional
Mus musculus [1] = experiment: Antiinflammatory activity in mouse assessed as inhibition of TPA-induced ear edema at 400 nmol
Mus musculus [2] = experiment: Antiinflammatory activity in mouse assessed as inhibition of TPA-induced ear edema at 430 nmol
Mus musculus [3] = experiment: Antiinflammatory activity in mouse assessed as inhibition of TPA-induced ear edema at 560 nmol

In the case of C=C(CC[C@@H](C)[C@H]1CC[C@@]2(C)C3=C(C[C@H](O)[C@]12C)[C@@]1(C)CC[C@@H](OC(=O)CC(=O)O)C(C)(C)[C@@H]1CC3)[C@H](C)C(=O)O, the “inhibition (INH)” value (Mus musculus [1]) is reported as 65%.
In the case of C=C(CC[C@@H](C)[C@H]1CC[C@@]2(C)C3=C(C[C@H](O)[C@]12C)[C@@]1(C)CC[C@@H](OC(=O)CC(C)(O)CC(=O)OC)C(C)(C)[C@@H]1CC3)[C@H](C)C(=O)O (some centres not stated), the “inhibition (INH)” value (Mus musculus [1]) is reported as 75%.
C=C(CC[C@@H](C)[C@H]1CC[C@@]2(C)C3=C(C[C@H](O)[C@]12C)[C@@]1(C)CC[C@@H](OC(=O)C[C@](C)(O)CC(=O)OC)C(C)(C)[C@@H]1CC3)[C@H](C)C(=O)O was tested, and the “inhibition (INH)” value (Mus musculus [1]) was 86%.
CC1(C)[C@@H](O)CC[C@]2(C)[C@H]3C(=O)C=C4[C@@H]5C[C@@](C)(C(=O)O)CC[C@]5(C)CC[C@@]4(C)[C@]3(C)CC[C@@H]12 [ENOXOLONE] was tested, and the “inhibition (INH)” value (Mus musculus [2]) was 24%.
COc1ccc2c(c1)c(CC(=O)O)c(C)n2C(=O)c1ccc(Cl)cc1 [INDOMETHACIN] was tested, and the “inhibition (INH)” value (Mus musculus [3]) was 16%.
C=C(CC[C@@H](C)[C@H]1CC[C@@]2(C)C3=C(C[C@H](O)[C@]12C)[C@@]1(C)CC[C@@H](O)C(C)(C)[C@@H]1CC3)[C@H](C)C(=O)O [POLYPORENIC ACID A] was tested, and the “inhibition (INH)” value (Mus musculus [1]) was 64%.
With C=C(CC[C@@H](C(=O)O)[C@H]1[C@H](O)C[C@@]2(C)C3=CC[C@H]4C(C)(C)C(=O)CC[C@]4(C)C3=CC[C@]12C)C(C)C [POLYPORENIC ACID B] the “inhibition (INH)” value (Mus musculus [1]) was 49%.
